# Measured values reported in ChEMBL document CHEMBL2086350, “Structure-activity relationship and antitumor activity of thio-benzodiazepines as p53-MDM2 protein-protein interaction inhibitors” (Eur J Med Chem, 2012).
# Key:
# [1] = biological target: E3 ubiquitin-protein ligase Mdm2 (Homo sapiens, UniProt Q00987); assay: Inhibition of MDM2 binding domain assessed as inhibition of p53 binding to MDM2 after 1 hr by fluorescence polarization assay
# SAOS-2 = assay: Antiproliferative activity against human p53-deficient Saos2 cells after 72 hrs by MTT assay; conditions: SAOS-2, 72 h
# U2OS = assay: Antiproliferative activity against human U2OS cells expressing wild type p53 after 72 hrs by MTT assay
# A549 = assay: Antiproliferative activity against human A549 cells expressing wild type p53 after 72 hrs by MTT assay; conditions: A549, 72 h
# NCI-H1299 = assay: Antiproliferative activity against human p53-deficient NCI-H1299 cells after 72 hrs by MTT assay; conditions: NCI-H1299, 72 h
# E3 ubiquitin-protein ligase Mdm2, sequence (Q00987 whole entry, the tested form may be a part): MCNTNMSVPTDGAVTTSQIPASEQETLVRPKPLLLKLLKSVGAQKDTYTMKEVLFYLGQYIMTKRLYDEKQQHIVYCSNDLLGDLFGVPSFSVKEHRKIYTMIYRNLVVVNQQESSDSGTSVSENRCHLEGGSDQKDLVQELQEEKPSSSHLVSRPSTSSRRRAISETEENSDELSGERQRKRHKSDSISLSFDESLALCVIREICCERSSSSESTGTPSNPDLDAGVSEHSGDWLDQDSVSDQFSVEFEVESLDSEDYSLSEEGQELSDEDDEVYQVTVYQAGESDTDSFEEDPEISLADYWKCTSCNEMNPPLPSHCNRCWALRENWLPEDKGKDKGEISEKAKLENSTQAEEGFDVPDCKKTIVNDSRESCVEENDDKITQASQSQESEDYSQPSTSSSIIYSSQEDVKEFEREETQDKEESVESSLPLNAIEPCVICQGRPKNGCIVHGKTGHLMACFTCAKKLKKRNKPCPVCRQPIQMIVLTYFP
Compound,Ki [1] [µM],IC50 (SAOS-2) [µM],IC50 (U2OS) [µM],IC50 (A549) [µM],IC50 (NCI-H1299) [µM]
COC(=O)C(c1ccc(Cl)cc1)N1C(=O)c2cc(C)ccc2NC(=S)C1c1ccc(Cl)cc1 (centres undefined),37.7,25.5,32.7,> 100,73.6
COC(=O)C(c1ccc(Cl)cc1)N1C(=O)c2ccc(F)cc2NC(=S)C1c1ccc(Cl)cc1 (centres undefined),–,6.59,12,8.44,16.5
COC(=O)C(c1ccc(Cl)cc1)N1C(=O)c2ccc(Cl)cc2NC(=S)C1c1ccc(Cl)cc1 (centres undefined),1.37,11.1,12.1,37.2,16.5
COC(=O)C(c1ccc(Cl)cc1)N1C(=O)c2cccc(Cl)c2NC(=S)C1c1ccc(Cl)cc1 (centres undefined),> 100,61.8,88.5,> 100,> 100
COC(=O)C(c1ccc(Cl)cc1)N1C(=O)c2ccc(Cl)cc2N=C(SC)C1c1ccc(Cl)cc1 (centres undefined),> 100,> 100,67.6,> 100,> 100
COC(=O)C(c1ccc(Cl)cc1)N1C(=O)c2ccc(Cl)cc2NC(=S)C1c1ccc(C(F)(F)F)cc1 (centres undefined),–,9.23,27.4,23.7,39.5
CCOC(=O)CSC1=Nc2cc(OC)ccc2C(=O)N(C(C(=O)OC)c2ccc(Cl)cc2)C1c1ccc(Cl)cc1 (centres undefined),21.1,> 100,> 100,> 100,> 100
COC(=O)C(c1ccc(F)cc1)N1C(=O)c2ccc(Cl)cc2NC(=S)C1c1ccc(F)cc1 (centres undefined),1.72,12.7,44.3,25.6,> 100
COC(=O)C(c1ccc(Cl)cc1)N1C(=O)c2ccc(NCc3ccc(C(F)(F)F)cc3)cc2NC(=S)C1c1ccc(Cl)cc1 (centres undefined),6.7,25.3,15.9,25.7,42.6
COC(=O)C(c1ccc(F)cc1)N1C(=O)c2cc(Cl)ccc2NC(=S)C1c1ccc(Cl)cc1 (centres undefined),–,6.48,7.23,19.7,29.7
COC(=O)C(c1ccc(F)cc1)N1C(=O)c2ccc(F)cc2NC(=S)C1c1ccc(Cl)cc1 (centres undefined),1.05,32.1,28,19.4,25
COC(=O)C(c1ccc(Cl)cc1)N1C(=O)c2cc(Cl)ccc2NC(=S)C1c1ccc(Cl)cc1 (centres undefined),0.721,8.91,3.5,18.7,24.7
COC(=O)C(c1ccc(Cl)cc1)N1C(=O)c2ccc(Br)cc2NC(=S)C1c1ccc(Cl)cc1 (centres undefined),3.98,11,35.7,> 100,35.4
COC(=O)C(c1ccc(Cl)cc1)N1C(=O)c2cccc(C)c2NC(=S)C1c1ccc(Cl)cc1 (centres undefined),> 100,19.1,27.8,> 100,73.3
COC(=O)C(c1ccc(Cl)cc1)N1C(=O)c2ccc(OC)cc2NC(=S)C1c1ccc(Cl)cc1 (centres undefined),> 100,20,35.3,> 100,> 100
COC(=O)C(c1ccc(F)cc1)N1C(=O)c2ccc(C(F)(F)F)cc2NC(=S)C1c1ccc(Cl)cc1 (centres undefined),3.02,13.7,11.8,9.44,14
COC(=O)C(c1ccc(Cl)cc1)N1C(=O)c2cc(F)c(F)cc2NC(=S)C1c1ccc(Cl)cc1 (centres undefined),> 100,3.84,2.61,11.3,5.73
COC(=O)C(c1ccc(Cl)cc1)N1C(=O)c2cccc(OC)c2NC(=S)C1c1ccc(Cl)cc1 (centres undefined),8.18,> 100,> 100,> 100,> 100
COC(=O)C(c1ccc(Cl)cc1)N1C(=O)c2ccc(Cl)cc2NC(=S)C1c1ccc(OC)cc1 (centres undefined),11.9,> 100,33.9,> 100,> 100
COC(=O)C(c1ccc(Cl)cc1)N1C(=O)c2cc(F)ccc2NC(=S)C1c1ccc(Cl)cc1 (centres undefined),–,11.9,7.53,12.9,14.5
COc1ccc(C2=N[C@@H](c3ccc(Cl)cc3)[C@@H](c3ccc(Cl)cc3)N2C(=O)N2CCNC(=O)C2)c(OC(C)C)c1 [NUTLIN-3],–,12.1,19.6,15,20.4
COC(=O)C(c1ccc(Cl)cc1)N1C(=O)c2ccc(C(F)(F)F)cc2NC(=S)C1c1ccc(Cl)cc1 (centres undefined),–,6.78,5.69,26.9,11.1
